Laboratory results published in ChEMBL document CHEMBL1121592, “Mutagenicity of substituted (o-phenylenediamine)platinum dichloride in the Ames test. A quantitative structure-activity analysis” (J Med Chem, 1980).

System: Salmonella typhimurium
Assay: Compound was tested in Ames test using Salmonella Typhimurium (TA-92). C is the molar concentration of compound producing 30 mutations/(10e 8) bacteria delivered
Assay type: functional, organism-based
Details: Salmonella enterica subsp. enterica serovar Typhimurium

Row | Substance | Log 1/C
1 | 0-Hexyl-1,3-diamine-platinum 2,2-dichloride | 4.22
2 | 0-Phenylene-1,3-diamine-platinum 2,2-dichloride-3,4,5-trichloro | 7.73
3 | 0-Phenylene-1,3-diamine-platinum 2,2-dichloride-4,5-dichloro | 6.89
4 | 0-Phenylene-1,3-diamine-platinum 2,2-dichloride-4-benzoyl | 7.52
5 | 0-Phenylene-1,3-diamine-platinum 2,2-dichloride-4-carboxylic acid methyl ester | 7
6 | 0-Phenylene-1,3-diamine-platinum 2,2-dichloride-4-ethoxy | 5.6
7 | 0-Phenylene-1,3-diamine-platinum 2,2-dichloride-4-methoxy | 5.65
8 | 0-Phenylene-1,3-diamine-platinum 2,2-dichloride-4-methyl | 5.6
9 | 0-Phenylene-1,3-diamine-platinum 2,2-dichloride-4-nitro | 8.65
10 | 4,5-benzoPhenylene-1,3-diamine-platinum 2,2-dichloride- | 5.92
11 | CISPLATIN | 4.52
12 | Phenylene-1,3-diamine-platinum 2,2-dichloride-4,5-dimethoxy | 4.64
